Values quoted from earlier work, collected in patent US10144908B2, “Liquid soap having enhanced antibacterial activity” (Conopco, Inc., priority 2013, dated 2018).

Conditions: in water at 25° C.

O=C([O-])CC(O)(CC(=O)[O-])C(=O)[O-].[Ag+].[Ag+].[Ag+] [Silver citrate]
Ksp: 2.5e-16 mol/L
